Key:
[1] = Stability test of crystal: accelerated test; format: physicochemical; conditions: 40° C. ± 2° C., relative humidity of 75% ± 5%
Experimental: (§1) The XRPD was measured using a PHASER BRUKER D2 X-ray powder diffractometer with a wavelength of 1.54060 Å. The melting point was measured using an YRT-3 melting point apparatus (manufactured by Tianjin University). The content was determined by HPLC with reference to Chinese Pharmacopoeia, 2010 edition, Part II, Appendix V D, using octadecylsilane bonded silica gel as a filler, and ammonium formate buffer solution and acetonitrile as a mobile phase; detection wavelength of 260 nm and column temperature of 40° C. The moisture content was determined using a METTLER TOLEDO DL31 Karl Fischer moisture analyzer.
(§2) The conditions and methods for the stability test of crystal were performed according to the requirements of the Chinese Pharmacopoeia (2010 edition), Part II, Appendix XIX C, Guidelines for Stability Tests of Active Pharmaceutical Ingredients and Pharmaceutical Preparations. The crystalline Form A prepared in Example 1 was used as a test sample. A medicinal low-density polyethylene bag was used as an inner package for a sample, and polyester/aluminum/polyethylene composite bag for pharmaceutical packaging was used as an outer packaging material for a sample.

[2] = Stability test of crystal: long-term test; format: physicochemical; conditions: 25° C. ± 2° C., relative humidity of 60% ± 10%
Experimental: as §1, §2

C=CC(=O)N1CCC(Nc2cc3c(Nc4ccc(F)c(Cl)c4)ncnc3cc2OC)CC1
Content of the crystalline Form A of the maleate of the compound of Formula (I) (HPLC) ([1]; 0 month): 99.4%
Moisture ([1]; 0 month): 0.17%
Content of the crystalline Form A of the maleate of the compound of Formula (I) (HPLC) ([1]; 1 month): 99.3%
Moisture ([1]; 1 month): 0.19%
Content of the crystalline Form A of the maleate of the compound of Formula (I) (HPLC) ([1]; 2 months): 99.2%
Moisture ([1]; 2 months): 0.18%
Content of the crystalline Form A of the maleate of the compound of Formula (I) (HPLC) ([1]; 3 months): 99.2%
Moisture ([1]; 3 months): 0.19%
Content of the crystalline Form A of the maleate of the compound of Formula (I) (HPLC) ([1]; 6 months): 99.3%
Moisture ([1]; 6 months): 0.20%
Content of the crystalline Form A of the maleate of the compound of Formula (I) (HPLC) ([2]; 0 month): 99.4%
Moisture ([2]; 0 month): 0.17%
Content of the crystalline Form A of the maleate of the compound of Formula (I) (HPLC) ([2]; 3 months): 99.3%
Moisture ([2]; 3 months): 0.19%
Content of the crystalline Form A of the maleate of the compound of Formula (I) (HPLC) ([2]; 6 months): 99.4%
Moisture ([2]; 6 months): 0.20%
Content of the crystalline Form A of the maleate of the compound of Formula (I) (HPLC) ([2]; 9 months): 99.2%
Moisture ([2]; 9 months): 0.21%
Content of the crystalline Form A of the maleate of the compound of Formula (I) (HPLC) ([2]; 12 months): 99.4%
Moisture ([2]; 12 months): 0.22%
Content of the crystalline Form A of the maleate of the compound of Formula (I) (HPLC) ([2]; 18 months): 99.2%
Moisture ([2]; 18 months): 0.24%

From patent publication US10858340B2, “Crystal of salt of quinazoline derivative” (CHIA TAI TIANQING PHARMACEUTICAL GROUP CO., LTD., priority 2016, dated 2020)
